Source: PMC5974779, “Prediction of Drug-Induced Hepatotoxicity Using Long-Term Stable Primary Hepatic 3D Spheroid Cultures in Chemically Defined Conditions” (Toxicological Sciences, 2018)
Like-named read-outs stand apart in the source and are kept apart here.

Legend:
[1] = ref DrugBank and Prescribers' Digital Reference database; cited from earlier work
[2] = cited from earlier work
[3] = tested on: clinical DILI in man; conditions: cited from earlier work
[4] = tested on: primary human hepatocytes (PHH) 3D spheroids
[5] = tested on: PHH 2D sandwich cultures; conditions: PHH 2D sandwich cultures, 100x Cmax; ref Xu 2008; cited from earlier work
[6] = therapeutic total cmax, ref PMID
[7] = DILI classification score, ref Suzuki et al. (2010)
[8] = FDA drug labeling DILI concern, ref Chen et al., 2011
[9] = FDA drug labeling DILI score, ref Chen et al., 2011
[10] = clinical DILI classification in man (POS/NEG)
[11] = clinical DILI classification used in this study, Supplementary Table 2, ref Chen et al., 2011, Guo et al., 2005, O'Brien et al., 2006, Sakatis et al., 2012, Suzuki et al., 2010, Xu et al., 2008
[12] = clinical DILI classification, Supplementary Table 1, ref Chen et al., 2011, Guo et al., 2005, O'Brien et al., 2006, Sakatis et al., 2012, Suzuki et al., 2010, Xu et al., 2008
[13] = reported pattern of liver damage, Supplementary Table 2, ref literature
[14] = clinical DILI classification, ref Xu et al. (2008)
[15] = clinical hepatotoxicity classification, ref O'Brien et al. (2003)

Row | SMILES | Extent of hepatic metabolism [1] | Cmax [2, 6] | FDA (0-8) [3, 9] | DILI in vivo [3, 10] | Classified as [3, 11] | DILI in vivo [3, 12] | Type of DILI [3, 13] | Chemically defined spheroids (this study) 20x [4] | 2Dsw (Xu 2008) 100x [5] | Classified as ([3]; in vivo) | Clinical DILI class (panel heading of Figure 4) ([3]; in vivo) | DILI in vivo ([3]; in vivo) | Type of DILI ([3]; in vivo) | Xu et al. (2008) [3, 14] | other results
1 | CCCN(CCC)C(=O)Cc1c(-c2ccc(Cl)cc2)nc2ccc(Cl)cn12 [Alpidem] | Extensive | 670 nM | Withdrawn | POS | POS | POS | Hepatocellular injury | Positive | – | – | – | – | – | – | Suzuki et al. (2010) [3, 7]: 3; FDA (Severity) [3, 8]: most DILI concern; Sakatis et al. (2012) ([3]; clinical hepatotoxicity classification, ref Sakatis et al. (2012)): Hepatotoxic
2 | CCC1(c2ccc(N)cc2)CCC(=O)NC1=O (centres unmarked) [Aminoglutethimide] | Moderate | 25400 nM | – | NEG | NEG | NEG | Non-hepatotoxic | Negative | Negative | – | – | – | – | – | –
3 | CCN(CC)Cc1cc(Nc2ccnc3cc(Cl)ccc23)ccc1O [Amodiaquine] | Extensive | 1910 nM | – | – | – | – | – | Positive | – | POS | Severe DILI | POS | Hepatocellular injury | – | Clinical DILI classification (Figure 5) ([3]; in vivo): DILI positive; hepatotoxicity evaluation in CD-spheroids ([4]; human, 14 days): highly toxic at 5× and 20× of therapeutic serum levels
4 | Clc1ccc2c(c1)C(N1CCNCC1)=Nc1ccccc1O2 [Amoxapine] | Extensive | 220 nM | 3 | NEG | NEG | NEG | Non-hepatotoxic | Negative | Negative | – | – | – | – | Negative | Clinical DILI classification (Figure 5) ([3]; structural analogue pairs, Figure 5, ref Chen et al., 2011, Xu et al., 2008 and others): DILI negative; hepatotoxicity evaluation in CD-spheroids [4]: not found to be toxic at any concentration tested
5 | Nc1cc(-c2ccncc2)c[nH]c1=O [Amrinone] | Extensive | 13800 nM | 5 | POS | POS | POS | Hepatocellular injury | Negative | Negative | – | – | – | – | Positive | –
6 | CN(C)C(=O)Oc1cc(OC(=O)N(C)C)cc(C(O)CNC(C)(C)C)c1 (centres unmarked) [Bambuterol] | Extensive | 10 nM | – | NEG | NEG | NEG | Non-hepatotoxic | Negative | Negative | – | – | – | – | – | –
7 | CC(C)COCC(CN(Cc1ccccc1)c1ccccc1)N1CCCC1 (centres unmarked) [Bepridil] | Extensive | 2000 nM | – | POS | POS | POS | Hepatocellular injury | Positive | Positive | – | – | – | – | – | –
8 | CC(C)(Oc1ccc(CCNC(=O)c2ccc(Cl)cc2)cc1)C(=O)O [Bezafibrate] | Extensive | 16600 nM | – | – | – | – | – | Negative | Negative | NEG | DILI negative | NEG | Non-hepatotoxic | – | –
9 | CCCCNc1cc(C(=O)O)cc(S(N)(=O)=O)c1Oc1ccccc1 [Bumetanide] | Moderate | 80 nM | – | – | – | – | – | Negative | – | POS | High DILI concern | POS | – | – | FDA (0-8) ([3]; in vivo): 3; Xu et al. (2008) ([3]; in vivo): Positive
10 | CN(C)/N=N/c1[nH]cnc1C(N)=O [Dacarbazine] | Extensive | 16600 nM | – | – | – | – | – | Positive | – | POS | Severe DILI | POS | Hepatocellular injury | – | FDA (0-8) ([3]; in vivo): 6; FDA (Severity) ([3]; in vivo): most DILI concern; Guo et al. (2005) ([3]; in vivo): 3; Sakatis et al. (2012) ([3]; in vivo): Hepatotoxic
11 | NNc1nnc(NN)c2ccccc12 [Dihydralazine] | Moderate | 2630 nM | – | POS | POS | POS | Hepatocellular injury or Cholestatic injury | Positive | – | – | – | – | – | – | –
12 | CC(C)OC(=O)C(C)(C)Oc1ccc(C(=O)c2ccc(Cl)cc2)cc1 [Fenofibrate] | Extensive | 12100 nM | – | – | – | – | – | Positive | – | POS | High DILI concern | POS | Hepatocellular injury, Cholestatic injury or Mixed hepatitis | – | FDA (0-8) ([3]; in vivo): 3; FDA (Severity) ([3]; in vivo): less DILI concern; O'Brien et al. (2003) ([3]; in vivo): Moderately; Sakatis et al. (2012) ([3]; in vivo): Hepatotoxic; Suzuki et al. (2010) ([3]; in vivo): 1; Xu et al. (2008) ([3]; in vivo): Positive
13 | OC(Cn1cncn1)(Cn1cncn1)c1ccc(F)cc1F [Fluconazole] | Minimal | 8820 nM | – | – | – | – | – | Negative | – | POS | Severe DILI | POS | Hepatocellular injury | – | FDA (0-8) ([3]; in vivo): 8; FDA (Severity) ([3]; in vivo): most DILI concern; Guo et al. (2005) ([3]; in vivo): 3; Sakatis et al. (2012) ([3]; in vivo): Hepatotoxic; Suzuki et al. (2010) ([3]; in vivo): 1; Xu et al. (2008) ([3]; in vivo): Positive
14 | CC(C)NNC(=O)c1ccncc1 [Iproniazid] | Extensive | 40 nM | Withdrawn | POS | POS | POS | Hepatocellular injury | Negative | – | – | – | – | – | – | Suzuki et al. (2010) [3, 7]: 3; FDA (Severity) [3, 8]: most DILI concern; Sakatis et al. (2012) ([3]; in vivo): Hepatotoxic; hepatotoxicity evaluation in CD-spheroids [4]: predicted to be DILI negative
15 | O=C(c1ccccc1)c1ccc2n1CCC2C(=O)O (centres unmarked) [Ketorolac] | Moderate | 2390 nM | 3 | POS | POS | POS | – | Positive | – | – | – | – | – | Positive | Guo et al. (2005) ([3]; DILI classification score, ref Guo et al. (2005)): 2; Suzuki et al. (2010) [3, 7]: 1; FDA (Severity) [3, 8]: less DILI concern; O'Brien et al. (2003) [3, 15]: Severely
16 | COC(=O)C1=C(C)NC(C)=C(C(=O)OCC(C)C)C1c1ccccc1[N+](=O)[O-] (centres unmarked) [Nisoldipine] | Extensive | 13 nM | – | – | – | – | – | Negative | Negative | – | – | – | – | – | –
17 | CN1Cc2c(N)cccc2C(c2ccccc2)C1 (centres unmarked) [Nomifensine] | Moderate | 5640 nM | Withdrawn | POS | POS | POS | Cholestatic injury | Positive | – | – | – | – | – | Positive | Suzuki et al. (2010) [3, 7]: 3; FDA (Severity) [3, 8]: most DILI concern
18 | Fc1ccc([C@@H]2CCNC[C@H]2COc2ccc3c(c2)OCO3)cc1 [Paroxetine] | Extensive | 50 nM | 8 | NEG | NEG | NEG | Non-hepatotoxic | Negative | – | – | – | – | – | Negative | Suzuki et al. (2010) [3, 7]: 2; FDA (Severity) [3, 8]: less DILI concern; O'Brien et al. (2003) [3, 15]: Moderately
19 | CNC(=O)Oc1ccc2c(c1)[C@]1(C)CCN(C)[C@@H]1N2C [Physostigmine] | Extensive | – | 0 | NEG | NEG | NEG | Non-hepatotoxic | Negative | – | – | – | – | – | Negative | Cmax ([2]; human, in vivo): 18 nM; O'Brien et al. (2003) ([3]; in vivo): Non-toxic
20 | CC(C)(C)c1ccc(C(O)CCCN2CCC(C(O)(c3ccccc3)c3ccccc3)CC2)cc1 (centres unmarked) [Terfenadine] | Extensive | 4.5 nM | – | – | – | – | – | – | Negative | NEG | DILI negative | NEG | Non-hepatotoxic | – | –
